From patent US8658675B2, “Pyridin-4-yl derivatives” (Actelion Pharmaceuticals Ltd., priority 2009, dated 2014) come the findings set out here.

One data set has as its target human S1P1 receptor (Homo sapiens, UniProt P21453). The data set can be described thus: GTPγS assay to determine EC50 values. The class given is biochemical. Particulars: membranes of CHO cells expressing recombinant human S1P1 receptor; 35S-GTPγS binding. The protocol: GTPγS binding assays are performed in 96 well microtiter plates (Nunc, 442587) in a final volume of 200 μl, using membrane preparations of CHO cells expressing recombinant human S1P1 receptor. Assay conditions are 20 mM Hepes (Fluka, 54461), 100 mM NaCl (Fluka, 71378), 5 mM MgCl2 (Fluka, 63064), 0.1% BSA (Calbiochem, 126609), 1 μM GDP (Sigma, G-7127), 2.5% DMSO (Fluka, 41644), […] ^35S-GTPγS (Amersham Biosciences, SJ1320). The pH is 7.4. Test compounds are dissolved and diluted in 100% DMSO and pre-incubated at room temperature for 30 min in 150 μl of the above assay buffer, in the absence of ^35S-GTPγS. After addition of 50 μl of ^35S-GTPγS, the assay is incubated for 1 h at rt. The assay is terminated by transfer of the reaction mixture to a Multiscreen plate (Millipore, MAHFC1H60) using a cell harvester from Packard Biosciences, and the plates are washed with ice-cold 10 mM Na2HPO4/NaH2PO4 (70%/30%), dried, sealed at the bottom and, after addition of 25 μl MicroScint20 (Packard Biosciences, order#6013621), sealed on the top. Membrane-bound ^35S-GTPγS is measured with a TopCount from Packard Biosciences.
EC50 is the concentration of agonist inducing 50% of the maximal specific ^35S-GTPγS binding. Specific binding is determined by subtracting non-specific binding from maximal binding. Maximal binding is the amount of cpm bound to the Multiscreen plate in the presence of 10 μM of S1P. Non-specific binding is the amount of binding in the absence of an agonist in the assay.
Agonistic activities (EC50 values) of all exemplified compounds have been measured.
For orientation: GTPγS resists hydrolysis and so accumulates on activated G proteins.

Another data set relates to circulating lymphocytes. Nature of the data set: Assessment of in vivo efficacy: circulating lymphocytes after oral administration. The arrangement: species or system normotensive male Wistar rats. Particulars: Rattus norvegicus, Lymphocyte; 6 h after oral administration of 10 mg/kg, male Wistar rats, compared to vehicle group; read-out: Lymphocyte counts. The protocol: The efficacy of the compounds of Formula (I) is assessed by measuring the circulating lymphocytes after oral administration of 3 to 30 mg/kg of a compound of Formula (I) to normotensive male Wistar rats. The animals are housed in climate-controlled conditions with a 12 h-light/dark cycle, and have free access to normal rat chow and drinking water. Blood is collected before and 3, 6 and 24 h after drug administration. Full blood is subjected to hematology using Advia Hematology system (Bayer Diagnostics, Zurich, Switzerland).
All data are presented as mean±SEM. Statistical analyses are performed by analysis of variance (ANOVA) using Statistica (StatSoft) and the Student-Newman-Keuls procedure for multiple comparisons. The null hypothesis is rejected when p<0.05.
Lymphocyte counts 6 h after oral administration have been measured for 23 out of 30 exemplified compounds and are in the range of −42% to −80% with an average of −63%.

Data set [1] concerns rat trachea rings. Nature of the data set: Measurement of isometric force development: rat trachea ring constriction. The arrangement: species or system Female Wistar rats. Particulars: compound at 10 μM; in % of the constriction induced by 50 mM KCl.
Data set [2] relates to rat trachea rings. The description is as above. The settings on record: for potential to constrict rat trachea rings (comparison in words): compared to closest prior art analogues of WO 2008/029371 or to Example 2; for % trachea constriction at 1 μM: compound at 1 μM, in % of the constriction induced by 50 mM KCl. On the set-up: species or system Female Wistar rats. The method, then: Animals were obtained from RCC Ltd (Füllinsdorf, Switzerland). Female Wistar rats were euthanized by exposure to CO2. The tracheae were excised and rings from the lower segments were prepared. Rings of trachea were suspended in tissue baths (10 mL) containing Krebs-Henseleit buffer of the following composition (mM): NaCl 115; KCl 4.7; MgSO4 1.2; KH2PO4 1.5; CaCl2 2.5; NaHCO3 25; glucose 10. Bathing solution was maintained at 37° C. and aerated with 95% O2/5% CO2 (pH 7.4). A resting force of 2 g (20 mN) was applied to the ring preparation, and changes in force generation were measured using an isometric force recorder (EMKA Technologies Inc, Paris, France). Viability of rings was assessed by exposure to a depolarizing concentration of KCl (50 mM). Contraction of trachea was expressed as a percentage of the response to KCl.
All compounds were prepared as stock solutions of 0.3 mM in pure DMSO. Compounds were added to the bath (10 mL) in a volume of 33 μL to give a final bath concentration of DMSO of 0.33%.
Contraction of trachea was measured for 15 out of 30 exemplified compounds.

pEC50: −log10 of the molar value. Where only a bound is given, the exact number is not on record here.

human S1P1 receptor, sequence (P21453 whole entry): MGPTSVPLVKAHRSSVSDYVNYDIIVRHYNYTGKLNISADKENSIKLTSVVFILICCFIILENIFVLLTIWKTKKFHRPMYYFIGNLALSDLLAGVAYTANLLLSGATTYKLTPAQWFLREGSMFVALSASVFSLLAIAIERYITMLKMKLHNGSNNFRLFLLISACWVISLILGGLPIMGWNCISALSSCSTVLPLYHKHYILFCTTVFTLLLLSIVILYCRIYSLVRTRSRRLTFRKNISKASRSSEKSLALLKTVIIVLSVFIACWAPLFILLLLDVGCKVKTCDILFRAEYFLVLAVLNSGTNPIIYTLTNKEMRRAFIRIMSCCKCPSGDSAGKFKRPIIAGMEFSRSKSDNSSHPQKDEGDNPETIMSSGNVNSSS

What is called pEC50 is the negative decadic logarithm of the EC50, by convention in mol/L. Turning to `CCc1cc(-c2noc(-c3cc(OC)nc(C(CC)CC)c3)n2)cc(C)c1OC[C@@H](O)CO` [Example 1, (S)-3-(2-Ethyl-4-{5-[2-(1-ethyl-propyl)-6-methoxy-pyridin-4-yl]-[1,2,4]oxadiazol-3-yl}-6-methyl-phenoxy)-propane-1,2-diol], the pEC50 on human S1P1 receptor was 8.57. Besides, the change in vivo at 10 mg/kg with circulating lymphocytes was -63%. For the same molecule, the “% trachea constriction at 10 μM” value in the data set on rat trachea rings [1] was 24%. For the same molecule, in the data set with rat trachea rings [2], the “potential to constrict rat trachea rings (comparison in words)” value (from here on “potential to constrict rat trachea rings”) is listed as “significantly reduced potential to constrict rat trachea rings” and the “% trachea constriction at 1 μM” value was less than 5%.
With `CCc1cc(-c2noc(-c3cc(OC)nc(C4CCCC4)c3)n2)cc(C)c1OC[C@@H](O)CO` [Example 2, (S)-3-{4-[5-(2-Cyclopentyl-6-methoxy-pyridin-4-yl)-[1,2,4]oxadiazol-3-yl]-2-ethyl-6-methyl-phenoxy}-propane-1,2-diol], the pEC50 on human S1P1 receptor was 9.05. Also, the change in vivo at 10 mg/kg in the data set with circulating lymphocytes is -70%. The “% trachea constriction at 10 μM” value in the data set with rat trachea rings [1] was less than 5%. In the data set on rat trachea rings [2], the “potential to constrict rat trachea rings” value was “markedly reduced potential to constrict rat trachea rings” and the “% trachea constriction at 1 μM” value is given as less than 5%.
As for `CCc1cc(-c2noc(-c3cc(OC)nc(C(CC)CC)c3)n2)cc(C)c1OC[C@@H](O)CNC(=O)CO` [Example 6, N-[(2S)-3-(2-Ethyl-4-{5-[2-(1-ethyl-propyl)-6-methoxy-pyridin-4-yl]-[1,2,4]oxadiazol-3-yl}-6-methyl-phenoxy)-2-hydroxy-propyl]-2-hydroxy-acetamide], the negative-log EC50 (pEC50) on human S1P1 receptor is 9.22. For the same molecule, the change in vivo at 10 mg/kg in the data set with circulating lymphocytes was -59%. The “% trachea constriction at 10 μM” value with rat trachea rings [1] stood at 100%. For the same molecule, in the data set with rat trachea rings [2], the “potential to constrict rat trachea rings” value is listed as “significantly reduced potential to constrict rat trachea rings” and the “% trachea constriction at 1 μM” value is less than 5%.
For the molecule `CCc1cc(-c2noc(-c3cc(OC)nc(C4CCCCC4)c3)n2)cc(C)c1OC[C@@H](O)CNC(=O)CO` [Example 8, N-((2S)-3-{4-[5-(2-Cyclohexyl-6-methoxy-pyridin-4-yl)-[1,2,4]oxadiazol-3-yl]-2-ethyl-6-methyl-phenoxy}-2-hydroxy-propyl)-2-hydroxy-acetamide], the pEC50 on human S1P1 receptor is 7.97. The change in vivo at 10 mg/kg with circulating lymphocytes was -58%. In the data set on rat trachea rings [2], the “% trachea constriction at 1 μM” value is less than 5%.
On to `CCc1cc(-c2noc(-c3cc(OC)nc(C4CCCC4)c3)n2)cc(C)c1OC[C@@H](O)CN(C)C(=O)CO` [Example 10, N-((2S)-3-{4-[5-(2-Cyclopentyl-6-methoxy-pyridin-4-yl)-[1,2,4]oxadiazol-3-yl]-2-ethyl-6-methyl-phenoxy}-2-hydroxy-propyl)-2-hydroxy-N-methyl-acetamide], for which the pEC50 on human S1P1 receptor was 8.59. In the data set with circulating lymphocytes, the change in vivo at 10 mg/kg is -68%. Besides, the “% trachea constriction at 10 μM” value in the data set with rat trachea rings [1] was less than 5%. Besides, the “% trachea constriction at 1 μM” value with rat trachea rings [2] is on record as less than 5%.
Take `COc1cc(-c2nc(-c3cc(C)c(NS(C)(=O)=O)c(Cl)c3)no2)cc(C2CCCC2)n1` [Example 12, N-{2-Chloro-4-[5-(2-cyclopentyl-6-methoxy-pyridin-4-yl)-[1,2,4]oxadiazol-3-yl]-6-methyl-phenyl}-methanesulfonamide]: at human S1P1 receptor, the pEC50 was 9.52. Besides, the change in vivo at 10 mg/kg in the data set on circulating lymphocytes was -64%. Besides, the “% trachea constriction at 10 μM” value in the data set on rat trachea rings [1] is less than 5%. Also, the “% trachea constriction at 1 μM” value with rat trachea rings [2] is less than 5%.
On to `COc1cc(-c2nc(-c3cc(C)c(OC[C@@H](O)CO)c(Cl)c3)no2)cc(C2CCCC2)n1` [Example 13, (S)-3-{2-Chloro-4-[5-(2-cyclopentyl-6-methoxy-pyridin-4-yl)-[1,2,4]oxadiazol-3-yl]-6-methyl-phenoxy}-propane-1,2-diol], for which the negative logarithm of the EC50 (pEC50) at human S1P1 receptor is 9.00. Moreover, the change in vivo at 10 mg/kg in the data set on circulating lymphocytes is -60%. The “% trachea constriction at 1 μM” value with rat trachea rings [2] is given as less than 5%.
Turning to `CCc1cc(-c2noc(-c3cc(CCC(C)C)nc(OC)c3)n2)cc(C)c1OC[C@@H](O)CNC(=O)CO` [Example 16, N-[(2S)-3-(2-Ethyl-4-{5-[2-methoxy-6-(3-methyl-butyl)-pyridin-4-yl]-[1,2,4]oxadiazol-3-yl}-6-methyl-phenoxy)-2-hydroxy-propyl]-2-hydroxy-acetamide], the pEC50 at human S1P1 receptor is 9.15. The change in vivo at 10 mg/kg with circulating lymphocytes was -73%. Besides, in the data set on rat trachea rings [2], the “potential to constrict rat trachea rings” value is “markedly reduced potential to constrict rat trachea rings” and the “% trachea constriction at 1 μM” value is less than 5%.
Consider `CCc1cc(-c2noc(-c3cc(OC)nc(C(CC)CC)c3)n2)cc(C)c1NS(C)(=O)=O` [Example 18, N-(2-Ethyl-4-{5-[2-(1-ethyl-propyl)-6-methoxy-pyridin-4-yl]-[1,2,4]oxadiazol-3-yl}-6-methyl-phenyl)-methanesulfonamide], for which, at human S1P1 receptor, the pEC50 is 8.60. For the same molecule, the change in vivo at 10 mg/kg with circulating lymphocytes is -42%. The “% trachea constriction at 10 μM” value with rat trachea rings [1] is less than 5%. The “% trachea constriction at 1 μM” value with rat trachea rings [2] is given as less than 5%.
For `CCc1cc(-c2noc(-c3cc(OC)nc(C4CCCC4)c3)n2)cc(C)c1NS(C)(=O)=O` [Example 19, N-{4-[5-(2-Cyclopentyl-6-methoxy-pyridin-4-yl)-[1,2,4]oxadiazol-3-yl]-2-ethyl-6-methyl-phenyl}-methanesulfonamide], the pEC50 on human S1P1 receptor is 9.00. The change in vivo at 10 mg/kg with circulating lymphocytes was -61%. Also, the “% trachea constriction at 10 μM” value in the data set with rat trachea rings [1] is reported as less than 5%. The “% trachea constriction at 1 μM” value in the data set with rat trachea rings [2] is reported as less than 5%.
As to `CCc1cc(-c2nc(-c3cc(OC)nc(C4CCCC4)c3)no2)cc(C)c1OC[C@@H](O)CO` [Example 21, (S)-3-{4-[3-(2-Cyclopentyl-6-methoxy-pyridin-4-yl)-[1,2,4]oxadiazol-5-yl]-2-ethyl-6-methyl-phenoxy}-propane-1,2-diol], at human S1P1 receptor, the negative logarithm of the EC50 (pEC50) was 9.15. For the same molecule, the change in vivo at 10 mg/kg in the data set with circulating lymphocytes is -62%. Besides, in the data set with rat trachea rings [2], the “potential to constrict rat trachea rings” value is “same low potential to constrict rat trachea rings” and the “% trachea constriction at 1 μM” value is listed as less than 5%.
`CCc1cc(-c2nnc(-c3cc(OC)nc(C4CCCC4)c3)o2)cc(C)c1OC[C@@H](O)CO` [Example 25, (S)-3-{4-[5-(2-Cyclopentyl-6-methoxy-pyridin-4-yl)-[1,3,4]oxadiazol-2-yl]-2-ethyl-6-methyl-phenoxy}-propane-1,2-diol]: the pEC50 on human S1P1 receptor is 8.72. In addition, the change in vivo at 10 mg/kg with circulating lymphocytes is -51%. For the same molecule, the “% trachea constriction at 1 μM” value in the data set with rat trachea rings [2] stood at 53%.
